Where two headings read alike, the source gives them in different places.
How the values were obtained:
[1] = biological target: T1, ADP-Glc PPase (ADP-glucose pyrophosphorylase) (Mycobacterium tuberculosis, UniProt P9WN43); assay: biochemical
T1 construct: gene glgC

[2] = biological target: T2, Tre-6P Sase (trehalose-6-phosphate synthase) (Mycobacterium tuberculosis, UniProt P9WN11); conditions: read-out: A0.5
T2 construct: gene otsA

[3] = biological target: T1, ADP-Glc PPase (ADP-glucose pyrophosphorylase)
[4] = biological target: T1, ADP-Glc PPase (ADP-glucose pyrophosphorylase); conditions: read-out: A0.5
[5] = test system: Nc1ncnc2c1ncn2[C@@H]1O[C@H](COP(=O)(O)OP(=O)(O)O[C@H]2O[C@H](CO)[C@@H](O)[C@H](O)[C@H]2O)[C@@H](O)[C@H]1O; assay: purified protein; conditions: pH 8.0

T1 sequence (P9WN43 whole entry): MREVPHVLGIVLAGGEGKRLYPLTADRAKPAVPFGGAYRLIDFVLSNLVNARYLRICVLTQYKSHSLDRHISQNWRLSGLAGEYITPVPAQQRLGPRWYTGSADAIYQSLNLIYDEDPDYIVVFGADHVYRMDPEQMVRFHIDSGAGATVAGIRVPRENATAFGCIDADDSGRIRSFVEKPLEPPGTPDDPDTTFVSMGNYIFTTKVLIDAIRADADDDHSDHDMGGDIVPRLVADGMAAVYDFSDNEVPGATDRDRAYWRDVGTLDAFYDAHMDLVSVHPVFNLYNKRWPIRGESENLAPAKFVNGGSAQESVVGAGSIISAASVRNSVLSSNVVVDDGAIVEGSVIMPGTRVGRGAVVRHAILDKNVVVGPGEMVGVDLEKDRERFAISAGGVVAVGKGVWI
T2 sequence (P9WN11 whole entry): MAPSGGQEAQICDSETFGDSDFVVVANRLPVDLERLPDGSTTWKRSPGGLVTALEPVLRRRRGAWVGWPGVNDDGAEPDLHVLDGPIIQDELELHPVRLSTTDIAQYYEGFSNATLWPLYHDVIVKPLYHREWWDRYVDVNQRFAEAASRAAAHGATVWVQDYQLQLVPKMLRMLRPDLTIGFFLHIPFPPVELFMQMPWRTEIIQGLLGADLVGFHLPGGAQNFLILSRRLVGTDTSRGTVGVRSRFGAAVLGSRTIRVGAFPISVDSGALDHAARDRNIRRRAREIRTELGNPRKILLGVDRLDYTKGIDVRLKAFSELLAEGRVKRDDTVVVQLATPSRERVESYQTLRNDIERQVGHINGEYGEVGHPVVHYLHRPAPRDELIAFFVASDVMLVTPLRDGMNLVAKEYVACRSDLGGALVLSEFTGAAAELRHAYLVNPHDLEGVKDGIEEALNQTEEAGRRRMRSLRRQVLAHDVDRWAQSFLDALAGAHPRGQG

## C=C(OP(=O)(O)O)C(=O)O [PEP]
[1]
  EC50: 90 µM

## O=P(O)(O)OC[C@H]1OC(O)(CO)[C@@H](O)[C@@H]1O (stereo partly drawn) [Fru-6P]
[2]
  EC50: 330 µM
[3]
  fold activation at 5 mM: 1.3 fold

## O=P(O)(O)OC[C@H]1OC(O)[C@H](O)[C@@H](O)[C@@H]1O (stereo partly drawn) [Glc-6P]
[4]
  EC50: 870 µM

## GSase (glycogen synthase) (Mycobacterium tuberculosis H37Rv)
[5]
  K0.5: 3.95 ± 0.12 mM
  Vmax: 0.21 µmol/min/mg

Reference: paper PMC4331664, “Allosteric regulation of the partitioning of glucose-1-phosphate between glycogen and trehalose biosynthesis in Mycobacterium tuberculosis” (Biochimica et Biophysica Acta. General Subjects, 2015)
